Assays:
[1] = molecular target: T1, α-Synuclein (αS) aggregation (Homo sapiens, UniProt P37840); assay: Spin-down assay / SDS-PAGE of soluble and insoluble αS fractions; type: biochemical; conditions: 100 μM αS aggregated four days, indicated molar ratios
[2] = test system: UA196 worms (human αS and GFP in DA neurons); assay: Confocal count of healthy DA neurons in UA196 worms, early treatment; type: in vivo, C. elegans; conditions: UA196, 50 μM on day two
[3] = molecular target: αS (Homo sapiens, UniProt P37840); assay: 2D HSQC; type: binding; conditions: 70 μM 15N αS, NS132 equimolar
[4] = test system: NL5901 worms (αS-YFP in body wall muscle cells); assay: Confocal count of αS-YFP inclusions in NL5901 worms; type: in vivo, C. elegans; conditions: NL5901, 50 μM on day two
[5] = molecular target: T1, α-Synuclein (αS) aggregation; assay: Thioflavin T; type: biochemical; conditions: 100 μM αS in 1 × PBS, ligand at equimolar ratio, four days

| Structure (SMILES) | Antagonist activity by SDS-PAGE analysis [1] | neuroprotective effect on degeneration of DA neurons [2] | binding site of NS132 on αS (residues with changed amide peaks) [3] | number of inclusions [4] | Effect on αS aggregation, ThT assay [5] | % loss of the total number of DA neurons ([2]; up to 15 days) |
| --- | --- | --- | --- | --- | --- | --- |
| Cc1ccc(NC(=O)c2ccc(NC(=O)c3ccc([N+](=O)[O-])c(NCCc4c[nH]c5ccccc45)n3)c(NCC3CCCCC3)n2)c(OCC(=O)OC(C)(C)C)n1 [NS132-P] | poor antagonist of αS aggregation | – | – | – | – | – |
| Cc1ccc(NC(=O)c2ccc(NC(=O)c3ccc([N+](=O)[O-])c(NCCc4c[nH]c5ccccc45)n3)c(NCC3CCCCC3)n2)c(OCC(=O)O)n1 [NS132] | – | very good neuroprotective effect | residues 10-20, 36-43, and 50,55,59 | decrease in the number of inclusions | most potent antagonist | – |
| Cc1ccc(NC(=O)c2ccc(NC(=O)c3ccc([N+](=O)[O-])c(NCCc4c[nH]c5ccccc45)n3)c(NCC3CCCCC3)n2)c(OCC(=O)NO)n1 [NS163] | – | remarkable neuroprotective effect | – | – | potent antagonist of αS aggregation | < 5% |

Reference: publication doi:10.1101/2022.07.11.499659v1 (bioRxiv, 2022)
